Molecules are shown by their SMILES. pEC50, pIC50: −log10 of the molar value. Structures can show the parent of a compound that is named as a salt.

The subject of one data set is platelet aggregation. The data set can be described thus: Antithrombotic activity: inhibition of collagen-induced platelet aggregation (Born and Cross) in platelet-rich plasma of healthy volunteers. The data set is classed as cell-based. The following applies: Homo sapiens, 10 minutes preincubation at 37° C. The procedure:
2. Antithrombotic activity Method The thrombocyte aggregation is measured using the method of Born and Cross (J. Physiol. 170:397 (1964)) in platelet-rich plasma taken from healthy volunteers. To inhibit coagulation, the blood is mixed with 3.14% sodium citrate in a volume ratio of 1:10. Collagen-induced aggregation The pattern of the decrease in optical density of the platelet suspension is photometrically measured and recorded after the addition of the aggregation-triggering substance. The rate of aggregation is determined from the angle of inclination of the density curve. The point on the curve where there is maximum light transmittance is used to calculate the optical density. The concentration of collagen used is as small as possible but sufficient to produce an irreversible reaction curve. Standard commercial collagen produced by Hormonchemie of Munich is used. Before the addition of the collagen the plasma is incubated for 10 minutes at 37° C. with the substance. From the measurements obtained, the EC50 is determined graphically as the concentration giving a 50% change in the optical density in terms of the inhibition of aggregation.

The next data set concerns the target human thrombocytes. The data set can be described thus: Inhibition of binding of ^3 H-BIBU 52 to human thrombocytes (competitive binding). As to conditions: human platelet-rich plasma diluted 1:10; 5 nM ^3 H-BIBU 52; 20 minutes, ambient temperature; read-out: Competitive binding of ^3 H-BIBU 52/test substance to human thrombocytes IC50. The procedure: 1. Inhibition of binding of ^3 H-BIBU 52 to human thrombocytes:
A suspension of human thrombocytes in plasma is incubated with ^3 H-BIBU 52 [=(3S,5S)-5-[(4'-amidino-4-biphenylyl)oxymethyl]-3-[(carboxyl)methyl]-2pyrrolidinone[3-^3 H-4-biphenylyl]] (see German Patent Application P 42 14 245.8 of the same applicant, dated 30.04.1992, internal reference: Case 5/1093-FL), which replaces the ^125 I fibrinogen ligand known from the literature, and various concentrations of the substance to be tested. The free and bound ligand are separated by centrifuging and quantified by scintillation counting. The inhibition of ^3 H-BIBU 52 binding by the test substance is determined from the measurements obtained.
In order to do this, donor blood is taken from an anticubital vein and anticoagulated with trisodium citrate (final concentration 13 mM). The blood is centrifuged for 10 minutes at 170×g and the supernatant platelet-rich plasma (PRP) is removed. The remaining blood is vigorously centrifuged once more in order to obtain plasma. The PRP is diluted 1:10 with autologous plasma. 750 μl are incubated with 50 μl of physiological saline solution, 100 μl of test substance solution, 50 μl of ^14 C-sucrose (3,700 Bq) and 50 μl of ^3 H-BIBU 52 (final concentration: 5 nM) at ambient temperature for 20 minutes. In order to measure the non-specific binding, 5 μl of BIBU 52 (final concentration: 30 μM) are used instead of the test substance. The samples are centrifuged for 20 seconds at 10,000× g and the supernatant is poured off. 100 μl thereof are measured in order to determine the free ligand. The pellet is dissolved in 500 μl of 0.2N NaOH, 450 μl are mixed with 2 ml of scintillator and 25 μl of 5N HCl and measured. The residual plasma remaining in the pellet is determined from the ^14 C-content and the bound ligand is determined from the ^3 H-measurement. After the non-specific binding has been deducted, the pellet activity is plotted against the concentration of the test substance and the concentration for a 50% inhibition of binding is determined.

The test system of another data set is mice. The data set can be described thus: Tolerance after intravenous administration of 30 mg/kg to three mice. The data set is classed as in vivo. The following applies: 30 mg/kg i.v., three mice in each case.

As to `O=C(O)CC1CCN(C(=O)c2ccc(-c3nc4c(s3)CNCC4)cc2)CC1` [2(1), 2-[4-[4-(carboxymethyl)-piperidinocarbonyl]-phenyl]-4,5,6,7-tetrahydro-thiazolo[5,4-c]pyridine-hydrochloride], the negative logarithm of the EC50 (pEC50) (in general, the negative decadic logarithm of the EC50, by convention in mol/L) in the data set with platelet aggregation was 5.59. Besides, the pIC50 on human thrombocytes was 6.68.
In turn, `COC(=O)[C@H]1CC[C@H](NC(=O)c2ccc(-c3nc4c(s3)CNCC4)c(C)c2)CC1` [2(4), 2-[4-[(trans-4-methoxycarbonyl-cyclohexyl)-aminocarbonyl]-2-methyl-phenyl]-4,5,6,7-tetrahydro-thiazolo[5,4-c]pyridine-dihydrochloride] had a pEC50 in the data set with platelet aggregation of 5.84. The pIC50 at human thrombocytes was 6.35.
In the data set with platelet aggregation, `O=C(N[C@H]1CC[C@H](C(=O)O)CC1)N1CCC(c2nc3c(s2)CNCC3)CC1` [3(5), 2-[1-[(trans-4-carboxy-cyclohexyl)-aminocarbonyl]-piperid-4-yl]-4,5,6,7-tetrahydro-thiazolo[5,4-c]pyridine] gave a negative-log EC50 (pEC50) of 7.00. In addition, the pIC50 at human thrombocytes was 7.51.
On the same counts, the results for `O=C(N[C@H]1CC[C@H](C(=O)O)CC1)N1CCC(c2nc3c(s2)CCNCC3)CC1` [3(6), 2-[1-[(trans-4-carboxy-cyclohexyl)-aminocarbonyl]-piperid-4-yl]-4,5,7,8-tetrahydro-6H-thiazolo[4,5-d]azepine] are 7.00 and 7.38.
For `O=C(N[C@H]1CC[C@H](C(=O)O)CC1)c1ccc(-c2nc3cnccc3[nH]2)cc1` [3(8), 2-[4-[(trans-4-carboxy-cyclohexyl)-aminocarbonyl]-phenyl]-1H-imidazo[4,5-c]pyridine] the same measures were 5.38 and 5.68.
In the case of `CN1CCc2nc(C3CCN(C(=O)N[C@H]4CC[C@H](C(=O)O)CC4)CC3)sc2CC1` [3(12), 2-[1-[(trans-4-carboxy-cyclohexyl)-aminocarbonyl]-piperid-4-yl]-6-methyl-4,5,7,8-tetrahydro-thiazolo[4,5-d]azepine], the pEC50 in the data set with platelet aggregation was 5.54. In addition, the pIC50 on human thrombocytes is 5.70.
In turn, `O=C(N[C@H]1CC[C@H](C(=O)O)CC1)c1ccc(-c2nc3c(s2)CCNCC3)cc1.O=C(O)C(F)(F)F` [4(1), 2-[4-[(trans-4-carboxy-cyclohexyl)-aminocarbonyl]-phenyl]-4,5,7,8-tetrahydro-6H-thiazolo[4,5-d]azepine-trifluoroacetate] showed a negative-log EC50 (pEC50) in the data set with platelet aggregation of 6.17. Further, the “death of animals after intravenous administration” value in the data set on mice is given as “no animals died”. In addition, the pIC50 at human thrombocytes was 7.12.
With `Cc1cc(C(=O)N[C@H]2CC[C@H](C(=O)O)CC2)ccc1-c1nc2c(s1)CNCC2` [4(3), 2-[4-[(trans-4-carboxy-cyclohexyl)-aminocarbonyl]-2-methyl-phenyl]-4,5,6,7-tetrahydro-thiazolo[5,4-c]pyridine-trifluoraocetate], the pEC50 with platelet aggregation was 6.66. The pIC50 at human thrombocytes was 7.62.
For the compound `O=C(O)[C@H]1CC[C@H](NC(=O)[C@H]2CC[C@H](c3nc4c(s3)CCNCC4)CC2)CC1` [4(4), 2-[trans-4-[(trans-4-carboxy-cyclohexyl)-aminocarbonyl]-cyclohexyl]-4,5,7,8-tetrahydro-6H-thiazolo[4,5-d]azepine-trifluoroacetate], in the data set on platelet aggregation, the pEC50 is 6.96. In addition, at human thrombocytes, the pIC50 is 6.92.
On the same counts, the results for `COC(=O)[C@H]1CC[C@H](NC(=O)N2CCC(c3nc4c(s3)CCNCC4)CC2)CC1` [7(1), 2-[1-[(trans-4-methoxycarbonyl-cyclohexyl)-aminocarbonyl]-piperid-4-yl]-4,5,7,8-tetrahydro-6H-thiazolo[4,5-d]azepine-hydrochloride] are 5.85 and 5.85.
In the data set with platelet aggregation, `CCOC(=O)[C@H]1CC[C@H](NC(=O)N2CCC(c3nc4c(s3)CCNCC4)CC2)CC1` [7(2), 2-[1-[(trans-4-ethoxycarbonyl-cyclohexyl)-aminocarbonyl]-piperid-4-yl]-4,5,7,8-tetrahydro-6H-thiazolo[4,5-d]azepine-hydrochloride] showed a negative-log EC50 (pEC50) of 5.59. Besides, the pIC50 on human thrombocytes was 5.89.
On the same counts, the results for `CC(C)OC(=O)[C@H]1CC[C@H](NC(=O)N2CCC(c3nc4c(s3)CCNCC4)CC2)CC1` [7(3), 2-[1-[(trans-4-isopropoxycarbonyl-cyclohexyl)-aminocarbonyl]-piperid-4-yl]-4,5,7,8-tetrahydro-6H-thiazolo[4,5-d]azepine-hydrochloride] are 5.89 and 5.82.
In the case of `O=C(N[C@H]1CC[C@H](C(=O)O)CC1)c1ccc(-c2nc3c(s2)CNCC3)cc1.O=C(O)C(F)(F)F` [Example 4, 2-[4-[(trans-4-Carboxy-cyclohexyl)-aminocarbonyl]-phenyl]-4,5,6,7-tetrahydro-thiazolo[5,4-c]pyridine-trifluoroacetate], in the data set with platelet aggregation, the pEC50 is 6.39. Moreover, the “death of animals after intravenous administration” value with mice is listed as “no animals died”. The pIC50 at human thrombocytes was 7.02.
Regarding `CC(C)COC(=O)[C@H]1CC[C@H](NC(=O)N2CCC(c3nc4c(s3)CCNCC4)CC2)CC1` [Example 7, 2-[1-[(trans-4-Isobutyloxycarbonyl-cyclohexyl)-aminocarbonyl]-piperid-4-yl]-4,5,7,8-tetrahydro-6H-thiazolo[4,5-d]azepine-hydrochloride], the negative logarithm of the EC50 (pEC50) with platelet aggregation was 6.18. The pIC50 at human thrombocytes is 5.80.

Values taken from patent publication US5607944A, “Bicyclic heterocyclic compounds, pharmaceutical preparations containing these compounds and processes for their preparations” (Karl Thomae GmbH, priority 1993, dated 1997).
